The results in this text go back to patent US20130053372A1, “5-HT RECEPTOR MODULATORS” (Cambridge Enterprise Limited, priority 2010, published 2013).

Broadly, the Kd is the free concentration of one partner at which half of the binding sites on the other are occupied at equilibrium, for simple one-to-one binding. The IC50 is the concentration needed to halve the response being measured.

The target of assay [1] is T1, gp5-HT1B (Cavia porcellus, UniProt O08892). The assay is described as follows: Guinea-pig iliac artery functional assay at gp5-HT1B (GPI). Details: from tissue; host or cells: guinea-pig common iliac artery segments. The format is cell-based. The conditions noted are these: classified as antagonism, agonism or no effect at 10 μM, against 5-nonyloxytryptamine contraction; monohydrochloride salt. On the procedure:
Protocol for Determination of Efficacy at gp5-HT1B Receptors in the Guinea-Pig Iliac Artery. (GPI)
Guinea-pig common iliac artery segments (1.0-1.5 mm long) from Dunkin-Harley guinea-pigs (250 g-500 g) were mounted under normalized tension in oxygenated (95% O2; 5% CO2) Krebs-Henseleit solution (NaCl, 118 mM; KCl, 4.7 mM; MgSO4, 1.2 mM; KH2PO4, 1.2 mM; NaHCO3, 25 mM; CaCl2, 2.5 mM; D-glucose, 11 mM; and with indomethacin, 10 μM). After 30 min equilibration, the vessels were precontracted with 5-HT (10 μM) and tested for endothelial integrity by administration of carbachol (10 μM), endothelium-intact vessels (relaxation ≧90% to carbachol) were used for the experiments. Concentration/contraction curves to cumulative addition of 5-nonyloxytryptamine (5-NOT; a 5-HT1B receptor-selective agonist) were constructed in 25 mM KCl Krebs-Henseleit solution (standard Krebs-Henseleit solution in which the KCl concentration was increased to 25 mM by equimolar substitution of NaCl). Vessels were incubated with putative antagonists for 30 min before construction of a concentration/contraction curve for 5-NOT. Contractile responses were expressed as a percentage of the tone induced by Krebs-Henseleit solution containing 90 mM KCl after substitution of an equivalent amount of NaCl with KCl in standard Krebs-Henseleit solution. Data were analysed using non-linear procedures by fitting to a logistic equation: E=(Rmax.[A]^nH)/EC50^nH+[A]^nH), where E is the contraction induced, [A] the concentration of the agonist, Rmax the maximal increase in tension induced, nH the slope function and EC50 the concentration of producing half the maximal contractile tone. Potency was assessed using the Gaddum equation: […] where [A] is the concentration of the putative antagonist and Ka its affinity constant at the 5-HT1B receptor. Compounds are classified as having antagonism, agonism or no effect at a dose concentration of 10 μM.

Assay [2] concerns the target T1, gp5-HT1B. The experiment in a line: Guinea-pig frontal cortex membrane binding at gp5-HT1B (GPF). More on the design: from tissue; host or cells: guinea-pig frontal cortex membranes. The following applies: monohydrochloride salt; for Kd: Kd from IC50 by Cheng & Prusoff, read-out: (GPF) Guinea-Pig Frontal Cortex membrane binding Affinity at gp5-HT1B Kd; for IC50: [3H]GR125743 displacement. The protocol: Binding Protocol for Determination of Affinity in gp5-HY1B in Guinea-Pig Frontal Cortex Membranes. (GPF)
Guinea-pig frontal cortex membranes were resuspended in a buffer (50 mM Tris-HCl, 4 mM MgCl, 2.5 mM CaCl2, 1 mM EDTA and 120 mM NaCl pH 7.4) to a final concentration of 5-6 μg protein μl^−1. Receptor binding was initiated by the addition of membranes and carried out in a volume of 0.5 ml at 27° C. Non-specific binding was determined by pre-incubation for 15 min with 10 μM SB214461 (N-(3-(2-(dimethylamino)ethoxy)-4-methoxyphenyl)-2′-methyl-4′-(5-methyl-1,2,4-oxadiazol-3-yl)biphenyl-4-carboxamide, Eur. J. Pharmacol. 1997, 331, 169-174). The amount of binding in the presence or absence of a competing ligand was determined by incubation at 27° C. for 60 min with 0.6 nM [N-methyl ^3H] GR125743 (GE Life Science Products). Incubation was terminated by rapid vacuum filtration through GF/B glass fibre filters that had been presoaked in 3% polyethylenimine. Samples were washed 3 times with 1.5 ml ice-cold buffer (50 mM Tris-HCl, pH 7.4) and bound radioactivity determined by liquid scintillation counting after leaving the filters in contact with the scintillation fluid for at least 4 h before counting for 5 min in a liquid scintillation analyzer.
Specific binding was determined as B—BNS/(BTot—BNS) where B is the binding in the presence of a given competing ligand, BNS is the non-specific binding of radioligand (i.e. the binding in the presence of 10 μM SB214461), and BTot is the amount of binding of radioligand in the absence of a competing ligand. Data for specific binding as a function of the concentration of competing ligand were fitted to a single-site model to obtain a value for IC50. Kd values were derived from IC50 by the Cheng & Prusoff equation (Cheng Y, Prusoff W H (1973). Biochem Pharmacol 22, 3099-3108).

A further assay addresses T2, rat r5-HT1B receptors (Rattus norvegicus, UniProt P28564).
T2 construct: from tissue
The experiment in a line: Binding affinity at rat r5-HT1B receptors, rat cerebral cortex membrane binding (RBA). The conditions noted are these: value in parentheses; monohydrochloride salt. The protocol: Binding Protocol for Determination of Affinity at rat r5-HT 1B Receptors (RBA)
This binding affinity protocol was performed according to standard conditions disclosed in Eur. J. Pharmacol. 1985, 118, 1-12.

The target of the next assay is human h5-HT1B receptor (Homo sapiens, UniProt P28222). The assay is described as follows: Binding affinity at human h5-HT1B receptors (HBA). The conditions noted are these: [3H]GR125743 displacement; Kd from IC50 by Cheng & Prusoff; monohydrochloride salt. The protocol:
Binding Protocol for Determination of Binding Affinity at Human […] Receptors (HBA)
Membrane preparations (5 μg in a volume of 100 μl per sample) expressing the human h5-HT1B receptor were preincubated at 27° C. in buffer (50 mM Tris HCl, 10 mM MgCl2 and 1 mM EDTA; pH 7.4) with or without 10 μM SB214461 (N-(3-(2-(dimethylamino)ethoxy)-4-methoxyphenyl)-2′-methyl-4′-(5-methyl-1,2,4-oxadiazol-3-yl)biphenyl-4-carboxamide, Eur. J. Pharmacol. 1997, 331, 169-174) (to determine non-specific binding). Receptor binding was determined by incubation at 27° C. with 3.5 nM [N-methyl-^3H] GR125743 (GE Life Science Products) for 90 min. The incubations were terminated by rapid vacuum filtration through GF/B glass fibre filters that had been presoaked in 3% polyethylenimine. Samples were washed 3 times with 1.5 ml ice-cold buffer (50 mM Tris-HCl, pH 7.4) and bound radioactivity determined by liquid scintillation counting after leaving the filters in contact with the scintillation fluid (4 ml Quicksafe ‘A’, Zinsser, Maidenhead, UK) for at least 4 h before counting for 5 min in a liquid scintillation analyzer.
Specific binding was determined as B—BNS/(BTot—BNS) where B is the binding in the presence of a given competing ligand, BNS is the non-specific binding of radioligand (i.e. the binding in the presence of 10 μM SB214461), and BTot is the amount of binding of radioligand in the absence of a competing ligand. Data for specific binding as a function of the concentration of competing ligand were fitted to a single-site model to obtain a value for […]. Kd values were derived from IC50 by the Cheng & Prusoff equation (Cheng Y, Prusoff W H (1973). Biochem Pharmacol 22, 3099-3108).

Chain of human h5-HT1B receptor (P28222 whole entry): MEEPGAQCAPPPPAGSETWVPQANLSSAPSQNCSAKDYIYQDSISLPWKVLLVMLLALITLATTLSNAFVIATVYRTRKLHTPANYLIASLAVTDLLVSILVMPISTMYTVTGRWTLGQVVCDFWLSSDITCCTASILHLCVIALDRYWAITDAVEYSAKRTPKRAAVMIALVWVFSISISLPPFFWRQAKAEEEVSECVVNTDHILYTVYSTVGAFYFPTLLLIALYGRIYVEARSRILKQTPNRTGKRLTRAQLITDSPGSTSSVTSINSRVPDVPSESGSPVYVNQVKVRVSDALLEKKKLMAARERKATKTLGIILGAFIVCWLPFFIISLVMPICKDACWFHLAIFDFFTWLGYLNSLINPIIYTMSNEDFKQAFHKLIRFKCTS
T2 sequence (P28564 whole entry): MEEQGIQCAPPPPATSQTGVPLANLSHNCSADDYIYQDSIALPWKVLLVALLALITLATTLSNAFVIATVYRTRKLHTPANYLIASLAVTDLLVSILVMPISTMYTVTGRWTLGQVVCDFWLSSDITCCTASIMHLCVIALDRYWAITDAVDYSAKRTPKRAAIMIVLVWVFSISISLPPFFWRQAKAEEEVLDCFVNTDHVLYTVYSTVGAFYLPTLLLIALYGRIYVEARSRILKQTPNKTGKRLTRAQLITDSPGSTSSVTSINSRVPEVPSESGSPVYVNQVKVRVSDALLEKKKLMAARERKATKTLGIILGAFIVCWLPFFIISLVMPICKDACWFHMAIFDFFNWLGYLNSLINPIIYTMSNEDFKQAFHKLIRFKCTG
T1 sequence (O08892 whole entry): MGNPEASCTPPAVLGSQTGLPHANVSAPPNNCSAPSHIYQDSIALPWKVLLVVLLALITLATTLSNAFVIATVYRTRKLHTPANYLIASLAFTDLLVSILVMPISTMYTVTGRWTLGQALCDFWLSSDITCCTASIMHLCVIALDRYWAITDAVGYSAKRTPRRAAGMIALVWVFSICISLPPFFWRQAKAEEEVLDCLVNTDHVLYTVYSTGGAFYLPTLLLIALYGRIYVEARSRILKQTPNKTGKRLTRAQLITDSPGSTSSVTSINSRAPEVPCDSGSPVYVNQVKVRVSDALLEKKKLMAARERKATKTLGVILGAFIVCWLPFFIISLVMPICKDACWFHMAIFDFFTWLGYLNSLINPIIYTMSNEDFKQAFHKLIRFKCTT

Regarding `COc1ccc(N2CCCC2=O)cc1N1CCC(N(C)C)CC1` [13e, 1-(3-(4-(dimethylamino)piperidin-1-yl)-4-methoxyphenyl)pyrrolidin-2-one, reference compound], the “(GPI) Guinea-Pig Iliac Artery functional assay at gp5-HT1B” value on gp5-HT1B [1] is given as “Antagonist”.

For the compound `COc1ccc(N2CCCC2=O)cc1N(C)CCN(C)C` [13f, 1-(3-((2-(dimethylamino)ethyl)(methyl)amino)-4-methoxyphenyl)pyrrolidin-2-one, reference compound], the “(GPI) Guinea-Pig Iliac Artery functional assay at gp5-HT1B” value at gp5-HT1B [1] is “No effect”.

Regarding `COc1ccc(N2CCCC2=O)cc1N1CCN(C)CC1` [Example 5a, 1-(4-methoxy-3-(4-methylpiperazin-1-yl)phenyl)pyrrolidin-2-one], on gp5-HT1B [2], the Kd was 15000 nM and the IC50 turned out to be 30000 nM. The “(GPI) Guinea-Pig Iliac Artery functional assay at gp5-HT1B” value at gp5-HT1B [1] is given as “Antagonist”.

In the case of `COc1ccc(N2CCCC2=O)cc1N1C[C@@H](C)N[C@@H](C)C1` [Example 13a, 1-(3-((3R,5S)-3,5-dimethylpiperazin-1-yl)-4-methoxyphenyl)pyrrolidin-2-one], on gp5-HT1B [1], the “(GPI) Guinea-Pig Iliac Artery functional assay at gp5-HT1B” value is “Antagonist”.

On to `COc1ccc(N2CCOC2=O)cc1N1CCN(C)CC1` [Example 13b, 3-(4-methoxy-3-(4-methylpiperazin-1-yl)phenyl)oxazolidin-2-one], for which the “(GPI) Guinea-Pig Iliac Artery functional assay at gp5-HT1B” value on gp5-HT1B [1] was “Antagonist”.

For `COc1ccc(N2CCCC2=O)cc1N1CCCN(C)CC1` [Example 13c, 1-(4-methoxy-3-(4-methyl-1,4-diazepan-1-yl)phenyl)pyrrolidin-2-one], at gp5-HT1B [1], the “(GPI) Guinea-Pig Iliac Artery functional assay at gp5-HT1B” value is reported as “Antagonist”.

As for `COc1ccc(N2CCOC2=O)cc1N1C[C@@H](C)N[C@@H](C)C1` [Example 13d, 3-(3-((3R,5S)-3,5-dimethylpiperazin-1-yl)-4-methoxyphenyl)oxazolidin-2-one], the “(GPI) Guinea-Pig Iliac Artery functional assay at gp5-HT1B” value at gp5-HT1B [1] is listed as “No effect”.

With `COc1ccc(N2CCCS2(=O)=O)cc1N1CCCN(C)CC1` [Example 18b, 2-(4-methoxy-3-(4-methyl-1,4-diazepan-1-yl)phenyl)-1,1-dioxoisothiazolidine], on rat r5-HT1B receptors, the IC50 stood at 12000 nM.

`C[C@@H]1CN(c2cc(N3CCCC3=O)cc3c2OCC3)C[C@H](C)N1` [Example 26b, 1-(7-((3S,5R)-3,5-dimethylpiperazin-1-yl)-2,3-dihydrobenzofuran-5-yl)pyrrolidin-2-one]: the IC50 on rat r5-HT1B receptors was 9600 nM.

In the case of `CN1CCN(c2cc(N3CCCC3=O)ccc2F)CC1` [Example 30, 1-(4-fluoro-3-(4-methylpiperazin-1-yl)phenyl)pyrollidin-2-one], on gp5-HT1B [2], the Kd came to 2000 nM and the IC50 turned out to be 4000 nM. Further, the “(GPI) Guinea-Pig Iliac Artery functional assay at gp5-HT1B” value at gp5-HT1B [1] is listed as “Antagonist”.

On to `CN1CCN(c2cc(N3CCCC3=O)cc3ccoc23)CC1` [Example 45, 1-(7-(4-methylpiperazin-1-yl)benzofuran-5-yl)pyrrolidin-2-one], for which, on gp5-HT1B [2], the Kd is 200 nM and the IC50 amounted to 400 nM. Further, the “(GPI) Guinea-Pig Iliac Artery functional assay at gp5-HT1B” value at gp5-HT1B [1] was “Antagonist”. For the same compound, on human h5-HT1B receptor, the Kd turned out to be 4500 nM.

In the case of `CN1CCN(c2cc(N3CCOC3=O)cc3ccoc23)CC1` [Example 47a, 3-(7-(4-methylpiperazin-1-yl)benzofuran-5-yl)oxazolidin-2-one], the Kd on gp5-HT1B [2] was 225 nM; on human h5-HT1B receptor, 13500 nM. In addition, the IC50 at gp5-HT1B [2] turned out to be 450 nM. In addition, the “(GPI) Guinea-Pig Iliac Artery functional assay at gp5-HT1B” value on gp5-HT1B [1] is “Antagonist”.

On to `COC(=O)N1CCN(c2cc(N3CCN(C)CC3)c3occc3c2)S1(=O)=O` [Example 49a, methyl 5-(7-(4-methylpiperazin-1-yl)benzofuran-5-yl)-1,1-dioxo-1,2,5-thiadiazolidine-2-carboxylate], for which the Kd amounted to 230 nM on gp5-HT1B [2] and 1800 nM at human h5-HT1B receptor. Besides, the IC50 on gp5-HT1B [2] amounted to 460 nM. The “(GPI) Guinea-Pig Iliac Artery functional assay at gp5-HT1B” value on gp5-HT1B [1] is recorded as “Antagonist”.

For `CN1CCN(c2cc(N3CCNS3(=O)=O)cc3ccoc23)CC1` [Example 50a, 2-(7-(4-methylpiperazin-1-yl)benzofuran-5-yl)-1,1-dioxo-1,2,5-thiadiazolidine], at gp5-HT1B [2], the Kd was determined as 700 nM and the IC50 stood at 1400 nM. Besides, the “(GPI) Guinea-Pig Iliac Artery functional assay at gp5-HT1B” value at gp5-HT1B [1] is reported as “Antagonist”. The IC50 at rat r5-HT1B receptors turned out to be 860 nM.
